Assay results as given in ChEMBL document CHEMBL1201862, “PubChem BioAssay data set” (2004).
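Compound exposure: 48 hours, 5 concentrations, 96-well plates. Abbreviation: GI50, concentration required for 50% inhibition of growth.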 Activity calls are given as the source filed them. No stated cut-off is given here; in the data, active = GI50 up to about 1.1 µM and inactive = higher.

What was measured:
Assay in all cases: growth of human tumour cells (NCI), 48 h
ACHN = tested on: ACHN
BT-549 = tested on: BT-549
CCRF-CEM = tested on: CCRF-CEM
COLO 205 = tested on: COLO 205
EKVX = tested on: EKVX
IGROV-1 = tested on: IGROV-1
M14 = tested on: M14
MDA-MB-435 = tested on: MDA-MB-435
NCI-H226 = tested on: NCI-H226
OVCAR-5 = tested on: OVCAR-5
SF-268 = tested on: SF-268
SK-MEL-28 = tested on: SK-MEL-28
SK-MEL-5 = tested on: SK-MEL-5
SN12C = tested on: SN12C
SW-620 = tested on: SW-620
TK-10 = tested on: TK-10
UACC-257 = tested on: UACC-257
HL-60 = tested on: HL-60
NCI-H522 = tested on: NCI-H522
SNB-75 = tested on: SNB-75

Measured: GI50

C=C(C)c1nc(C#N)c(N)o1
inactive: ACHN > 100 µM | BT-549 > 100 µM | CCRF-CEM > 100 µM | COLO 205 > 100 µM | EKVX > 100 µM | IGROV-1 36.3 µM | M14 > 100 µM | MDA-MB-435 > 100 µM | NCI-H226 > 100 µM | OVCAR-5 > 100 µM | SF-268 > 100 µM | SK-MEL-28 > 100 µM | SK-MEL-5 > 100 µM | SN12C > 100 µM | SW-620 > 100 µM | TK-10 > 100 µM | UACC-257 > 100 µM

C=CCN1CN(c2ccccc2)C2(CCN(CCCC3(c4ccc(F)cc4)OCCO3)CC2)C1=O
inactive: ACHN 18.7 µM | CCRF-CEM 13.3 µM | COLO 205 15.3 µM | EKVX 15.1 µM | HL-60 13.7 µM | IGROV-1 19.9 µM | M14 15.5 µM | NCI-H226 19.5 µM | NCI-H522 18.9 µM | OVCAR-5 11.3 µM | SF-268 18.7 µM | SK-MEL-28 16.9 µM | SK-MEL-5 15.1 µM | SN12C 17.7 µM | SNB-75 15.3 µM | SW-620 18.7 µM | TK-10 16.9 µM | UACC-257 18.3 µM

CC1C[C@]2(C)C(=O)Nc3ccccc3[C@@H]2Nc2ccccc21 (some centres not stated)
inactive: ACHN 27.1 µM | CCRF-CEM 30.5 µM | COLO 205 18.1 µM | EKVX 19.9 µM | HL-60 36.4 µM | IGROV-1 24.4 µM | M14 26.1 µM | MDA-MB-435 24 µM | NCI-H226 26.1 µM | OVCAR-5 35.6 µM | SF-268 23.7 µM | SK-MEL-28 28.6 µM | SK-MEL-5 16.5 µM | SN12C 19.5 µM | SNB-75 46.3 µM | SW-620 34.6 µM | TK-10 21.2 µM | UACC-257 15.6 µM

COc1ccc(/C=N/n2c(Cc3ccccc3)n[nH]c2=O)cc1
inactive: ACHN > 100 µM | BT-549 29.1 µM | CCRF-CEM > 100 µM | COLO 205 > 100 µM | EKVX > 100 µM | M14 > 100 µM | MDA-MB-435 > 100 µM | NCI-H226 > 100 µM | OVCAR-5 > 100 µM | SF-268 42.3 µM | SK-MEL-28 > 100 µM | SN12C > 100 µM | SNB-75 > 100 µM | SW-620 > 100 µM | UACC-257 > 100 µM

Cc1ccc(N2C(=O)C3C=CC(n4[nH]c(=O)n(Cc5ccccc5)c4=O)CC3C2=O)cc1 (configuration not stated)
inactive: ACHN > 100 µM | CCRF-CEM > 100 µM | COLO 205 > 100 µM | EKVX > 100 µM | HL-60 > 100 µM | IGROV-1 > 100 µM | M14 > 100 µM | NCI-H226 > 100 µM | NCI-H522 > 100 µM | OVCAR-5 > 100 µM | SF-268 > 100 µM | SK-MEL-28 > 100 µM | SK-MEL-5 > 100 µM | SN12C > 100 µM | SNB-75 74.6 µM | SW-620 > 100 µM | TK-10 > 100 µM | UACC-257 > 100 µM

CC[N+]1(C)CCC(O)(c2ccc(Cl)c(Cl)c2)C(C(=O)c2ccc(Cl)c(Cl)c2)C1 (configuration not stated)
inactive: ACHN > 10 µM | BT-549 > 10 µM | CCRF-CEM 2.61 µM | COLO 205 > 10 µM | EKVX > 10 µM | HL-60 > 10 µM | IGROV-1 > 10 µM | M14 > 10 µM | NCI-H226 > 10 µM | NCI-H522 3.08 µM | OVCAR-5 > 10 µM | SF-268 > 10 µM | SK-MEL-28 > 10 µM | SK-MEL-5 > 10 µM | SN12C > 10 µM | SNB-75 > 10 µM | SW-620 > 10 µM | TK-10 > 10 µM | UACC-257 > 10 µM

COc1ccc2c(c1)C1c3ccccc3CCN1CCC2 (configuration not stated)
inactive: ACHN 64.9 µM | BT-549 24.9 µM | CCRF-CEM 38.5 µM | COLO 205 44.7 µM | EKVX > 100 µM | IGROV-1 56.6 µM | M14 32.1 µM | MDA-MB-435 19.9 µM | NCI-H226 45.3 µM | NCI-H522 28.4 µM | OVCAR-5 93.1 µM | SF-268 56.6 µM | SK-MEL-28 74 µM | SK-MEL-5 29.2 µM | SN12C 71.1 µM | SNB-75 19.3 µM | SW-620 28.2 µM | TK-10 > 100 µM | UACC-257 39.6 µM

O=C1c2cc3ncsc3cc2C(=O)c2c(O)ccc(O)c21
inactive: ACHN > 100 µM | BT-549 > 100 µM | CCRF-CEM 98.9 µM | COLO 205 > 100 µM | EKVX > 100 µM | IGROV-1 > 100 µM | M14 > 100 µM | MDA-MB-435 > 100 µM | NCI-H226 > 100 µM | NCI-H522 > 100 µM | OVCAR-5 > 100 µM | SF-268 > 100 µM | SK-MEL-28 > 100 µM | SK-MEL-5 > 100 µM | SN12C > 100 µM | SNB-75 > 100 µM | SW-620 > 100 µM | TK-10 > 100 µM | UACC-257 > 100 µM

COC(=O)CCN(CCC(=O)OC)C1CC1
inactive: ACHN > 100 µM | CCRF-CEM > 100 µM | COLO 205 > 100 µM | EKVX > 100 µM | HL-60 > 100 µM | IGROV-1 > 100 µM | M14 > 100 µM | MDA-MB-435 > 100 µM | NCI-H226 > 100 µM | OVCAR-5 > 100 µM | SF-268 > 100 µM | SK-MEL-28 > 100 µM | SK-MEL-5 > 100 µM | SN12C > 100 µM | SNB-75 > 100 µM | SW-620 > 100 µM | TK-10 > 100 µM | UACC-257 > 100 µM

O=C(CCCNC(=O)OCc1ccccc1)OCc1ccc2c(c1)C(=O)c1ccccc1C2=O
inactive: ACHN > 100 µM | CCRF-CEM > 100 µM | COLO 205 > 7.6 µM | EKVX > 100 µM | HL-60 > 100 µM | IGROV-1 48.9 µM | M14 > 100 µM | NCI-H226 5.46 µM | NCI-H522 > 100 µM | OVCAR-5 > 100 µM | SF-268 53.8 µM | SK-MEL-28 > 100 µM | SK-MEL-5 > 30.7 µM | SN12C > 10.2 µM | SNB-75 20 µM | SW-620 > 100 µM | TK-10 34.8 µM | UACC-257 > 100 µM

Cc1ccc(C)c(NC(=O)C(=O)Nn2c(S)nc3ccccc3c2=O)c1
inactive: ACHN > 100 µM | CCRF-CEM > 100 µM | COLO 205 > 100 µM | EKVX 71.3 µM | HL-60 > 100 µM | IGROV-1 > 100 µM | M14 > 100 µM | NCI-H226 > 100 µM | NCI-H522 > 100 µM | OVCAR-5 > 100 µM | SF-268 > 100 µM | SK-MEL-28 > 100 µM | SK-MEL-5 > 100 µM | SN12C > 100 µM | SNB-75 > 100 µM | SW-620 > 100 µM | TK-10 > 100 µM | UACC-257 > 100 µM

COC1OC(Cn2c(C)nc(Br)c2Br)C(O)C(O)C1O (configuration not stated)
inactive: ACHN > 100 µM | BT-549 > 100 µM | CCRF-CEM > 100 µM | COLO 205 > 100 µM | EKVX > 100 µM | IGROV-1 > 100 µM | M14 > 100 µM | MDA-MB-435 > 100 µM | NCI-H522 > 100 µM | OVCAR-5 > 100 µM | SK-MEL-28 > 100 µM | SK-MEL-5 > 100 µM | SNB-75 > 100 µM | SW-620 > 100 µM | UACC-257 > 100 µM

N/C(=N\O)N/N=C/c1ccc(O)c(O)c1
inactive: ACHN > 100 µM | CCRF-CEM > 100 µM | COLO 205 > 100 µM | EKVX > 100 µM | HL-60 > 100 µM | IGROV-1 > 100 µM | M14 > 100 µM | NCI-H226 > 100 µM | NCI-H522 > 100 µM | OVCAR-5 > 100 µM | SF-268 > 100 µM | SK-MEL-28 > 100 µM | SK-MEL-5 > 100 µM | SN12C > 100 µM | SNB-75 > 100 µM | SW-620 > 100 µM | TK-10 > 100 µM | UACC-257 > 100 µM

O=C(CC(C(=O)c1cccs1)c1ccsc1)c1ccco1 (configuration not stated)
inactive: ACHN 32.3 µM | CCRF-CEM 19.1 µM | COLO 205 8.07 µM | EKVX 24.8 µM | HL-60 15.4 µM | IGROV-1 47.6 µM | M14 19.4 µM | MDA-MB-435 20.3 µM | NCI-H226 27 µM | NCI-H522 20 µM | OVCAR-5 11.5 µM | SF-268 27.6 µM | SK-MEL-28 17.1 µM | SK-MEL-5 27.7 µM | SN12C 35.5 µM | SNB-75 28 µM | SW-620 30.1 µM | TK-10 32.4 µM | UACC-257 37.9 µM

CCOc1ccccc1/N=N/c1c(-c2ccccc2)nn(C(=O)CC(=O)Nc2cccc(Cl)c2)c1-c1ccccc1
inactive: ACHN 18.7 µM | CCRF-CEM 37.8 µM | COLO 205 > 100 µM | EKVX 41.1 µM | HL-60 58.6 µM | IGROV-1 68.9 µM | M14 > 100 µM | NCI-H226 64.1 µM | NCI-H522 40.5 µM | OVCAR-5 50.8 µM | SF-268 29.2 µM | SK-MEL-28 31.9 µM | SK-MEL-5 52.2 µM | SN12C 40.4 µM | SNB-75 33.8 µM | SW-620 > 100 µM | TK-10 > 100 µM | UACC-257 98.2 µM
